Test results: patent US20120115907A1, “NOVEL COMPOUNDS AS INHIBITORS OF RENIN” (CADILA HEALTHCARE LIMITED, priority 2009, published 2012)

Tests used:
Guinea Pigs = test: Anaesthetized Guinea Pig Model (furosemide-treated, blood pressure via carotid artery); assay type: in vivo; set-up: unit not given beside the values; settings: intravenous, change from pretreatment
Procedure: Anaesthetized Guinea Pig Model
Experimental Procedure: Guinea Pigs were Treated with Furosemide in Drinking Water
(5 mg/kg/day) for four days and intramuscular injection (10 mg/kg) at 18 and 3 hr before experiment. There after they were anaesthetized by using intramuscular injection of xylazine and ketamine (7:70 mg/kg mixture). The left or right jugular vein was exposed and cannulated for intravenous administration of the NCEs. The to left or right carotid artery was exposed and cannulated for recording blood pressure using Biopac system. 0 (vehicle control), 3 and 10 mg of NCEs were administered and change in blood pressure from pretreatment was measured.

human recombinant renin = molecular target: T1, human recombinant renin (Homo sapiens, UniProt P00797); test: Inhibition of human recombinant renin (modified Cayman renin inhibitor screening assay, fluorescence); assay type: biochemical; settings: for inhibition at 0.01 µM: read-out: Renin inhibition (percent inhibition of renin activity) at 0.01 μM; for inhibition at 0.1 µM: read-out: Renin inhibition (percent inhibition of renin activity) at 0.1 μM
T1 construct: purchased Cayman 10006270
T1 sequence (P00797 67-406): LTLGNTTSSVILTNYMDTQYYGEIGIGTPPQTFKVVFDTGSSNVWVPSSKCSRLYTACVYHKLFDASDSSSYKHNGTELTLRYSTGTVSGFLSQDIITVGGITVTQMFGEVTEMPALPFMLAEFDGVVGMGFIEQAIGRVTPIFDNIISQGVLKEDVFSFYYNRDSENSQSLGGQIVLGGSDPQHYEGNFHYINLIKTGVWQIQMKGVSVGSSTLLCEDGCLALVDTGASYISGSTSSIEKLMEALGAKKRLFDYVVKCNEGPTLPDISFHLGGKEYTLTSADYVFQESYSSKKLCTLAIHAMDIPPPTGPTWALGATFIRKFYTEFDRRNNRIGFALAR
Procedure: In-vitro protocol for the Inhibition of human recombinant renin by the compound of invention • Procedure: The enzymatic in vitro assay was performed in 96 well polypropylene plate (Nunc), using a modified Renin inhibitor screening assay protocol (Cayman, cat no: 10006270). The reaction system comprised assay buffer containing 50 mM Tris-HCL, pH=8.0 & 100 mM sodium chloride, human recombinant rennin (1:20 diluted with fixed activity), synthetic renin substrates (Cayman, cat no: 10006906) (14.4 μM) and different concentrations of renin inhibitors in DMSO in a total reaction system of 100 μl. The entire reaction mixture were incubated at 37° C. for 30 mins and the fluorescence was read at excitation wavelengths of 320-360 nm and emission wavelengths of 490-520 nm. Test compounds efficacy was determined by the percent inhibition of renin activity using Aliskiren (Tekturna) as a reference standard.
Following table represents measured IC50 values of the selected compounds for its inhibition of human recombinant renin.

[1] = 0.01 μM compound, 37° C., 30 mins, human recombinant renin
[2] = 0.1 μM compound, 37° C., 30 mins, human recombinant renin

O=C(NC1CCNCC1C(=O)N(Cc1cccc(Cl)c1Cl)C1CC1)c1ccc(OCCOc2c(Cl)cccc2Cl)cc1 (stereo not shown) [Example 1, N-cyclopropyl-N-(2,3-dichlorobenzyl)-4-(4-(2-(2,6-dichlorophenoxy)ethoxy)benzamido) piperidine-3-carboxamide]
Reduction in M.A.B.P (Guinea Pigs; 3 mg): 18
Reduction in M.A.B.P (Guinea Pigs; 10 mg): 30
IC50 (human recombinant renin): 16 nM
inhibition at 0.01 µM (human recombinant renin; [1]): 88%
inhibition at 0.1 µM (human recombinant renin; [2]): 100%
melting point: 66 to 68 °C

Cc1cc(Cl)c(OCCOc2ccc(C(=O)N[C@H]3CCNCC3C(=O)N(Cc3cccc(C)c3C)C3CC3)cc2)c(Cl)c1 (stereo partly drawn) [Example 26, (4S)—N-Cyclopropyl-4-(4-(2-(2,6-dichloro-4-methylphenoxy)ethoxy)benzamido)-N-(2,3-dimethylbenzyl)piperidine-3-carboxamide]
Reduction in M.A.B.P (Guinea Pigs; 3 mg): 14
Reduction in M.A.B.P (Guinea Pigs; 10 mg): 28
IC50 (human recombinant renin): 21 nM
Renin inhibition (percent inhibition of renin activity) at 0.01 μM (human recombinant renin; [1]): 67%
Renin inhibition (percent inhibition of renin activity) at 0.1 μM (human recombinant renin; [2]): 97%

COc1ccccc1CN(C(=O)C1CNCC[C@@H]1NC(=O)c1ccc(OCCOc2c(Cl)cc(C)cc2Cl)cc1)C1CC1.Cl (stereo partly drawn) [Example 31, (4S)—N-Cyclopropyl-4-(4-(2-(2,6-dichloro-4-methylphenoxy)ethoxy)benzamido)-N-(2-methoxybenzyl)piperidine-3-carboxamide hydrochloride]
Reduction in M.A.B.P (Guinea Pigs; 3 mg): 8
Reduction in M.A.B.P (Guinea Pigs; 10 mg): 28
IC50 (human recombinant renin): 37 nM
inhibition at 0.01 µM (human recombinant renin; [1]): 22%
inhibition at 0.1 µM (human recombinant renin; [2]): 91%
